Data taken from PubChem BioAssay AID2060335 (Molecular Pharmacology Branch, DTP, NCI, 2025).
Where “and” joins values, the source holds several entries; their conditions need not be identical. Equal entries are not always repeated.

Tested on: DU-145 multicell spheroids with HUVEC/MSC, viability
Experiment: Anticancer human tumor DU-145 cell line growth inhibition [IpAb];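 further: spheroids exposed to agents for seven days before measurement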;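 on viability, T/C: percent of DMSO vehicle control viability so 100% = untreated level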
Details: for viability, T/C: stronger effect = lower value
Outline: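 Spheroids of 60% malignant cells, 25% HUVEC and 15% MSC were exposed to targeted agents combined with ipatasertib or abemaciclib. Doses started at or near clinical Cmax (10 microM when unknown) and fell in half-log steps.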

[1] = curve of first compound, second compound 0.1 µM
[2] = curve of first compound, second compound 0.316 µM
[3] = curve of first compound, second compound 1 µM
[4] = curve of first compound, second compound 3.16 µM
[5] = curve of first compound, second compound 10 µM
[6] = second compound 0.1 µM, first compound 0.000316 µM
[7] = second compound 0.1 µM, first compound 0.001 µM
[8] = second compound 0.1 µM, first compound 0.00316 µM
[9] = second compound 0.1 µM, first compound 0.01 µM
[10] = second compound 0.1 µM, first compound 0.0316 µM
[11] = second compound 0.1 µM, first compound 0.1 µM
[12] = second compound 0.316 µM, first compound 0.000316 µM
[13] = second compound 0.316 µM, first compound 0.001 µM
[14] = second compound 0.316 µM, first compound 0.00316 µM
[15] = second compound 0.316 µM, first compound 0.01 µM
[16] = second compound 0.316 µM, first compound 0.0316 µM
[17] = second compound 0.316 µM, first compound 0.1 µM
[18] = second compound 1 µM, first compound 0.000316 µM
[19] = second compound 1 µM, first compound 0.001 µM
[20] = second compound 1 µM, first compound 0.00316 µM
[21] = second compound 1 µM, first compound 0.01 µM
[22] = second compound 1 µM, first compound 0.0316 µM
[23] = second compound 1 µM, first compound 0.1 µM

## CC(=O)c1c(C)c2cnc(Nc3ccc(N4CCNCC4)cn3)nc2n(C2CCCC2)c1=O
Compound 0.000949 µM
  viability, T/C: 104% and 89.4%
Compound 0.003 µM
  viability, T/C: 102% and 98.4%
Compound 0.00949 µM
  viability, T/C: 99.7% and 96.5%
Compound 0.03 µM
  viability, T/C: 103% and 93.6%
Compound 0.0949 µM
  viability, T/C: 99.4% and 97.1%
Compound 0.3 µM
  viability, T/C: 90.7% and 80.9%
Curve of compound
  IC50: > 300 nM

## CC(C)(C)c1cnc(CSc2cnc(NC(=O)C3CCNCC3)s2)o1 + CC(C)NCC(C(=O)N1CCN(c2ncnc3c2C(C)CC3O)CC1)c1ccc(Cl)cc1
[1]
  IC50: 107 nM
[2]
  IC50: 81.5 nM
[3]
  IC50: < 9.49 nM
[4]
  IC50: < 9.49 nM
[5]
  IC50: < 9.49 nM
Second compound 0.1 µM, first compound 0.00949 µM
  viability, T/C: 89.1%
Second compound 0.1 µM, first compound 0.03 µM
  viability, T/C: 92%
Second compound 0.1 µM, first compound 0.0949 µM
  viability, T/C: 54.7%
Second compound 0.1 µM, first compound 0.3 µM
  viability, T/C: 10%
Second compound 0.1 µM, first compound 0.949 µM
  viability, T/C: 6.37%
Second compound 0.1 µM, first compound 3 µM
  viability, T/C: 5.76%
Second compound 0.316 µM, first compound 0.00949 µM
  viability, T/C: 60.1%
Second compound 0.316 µM, first compound 0.03 µM
  viability, T/C: 60.2%
Second compound 0.316 µM, first compound 0.0949 µM
  viability, T/C: 48.5%
Second compound 0.316 µM, first compound 0.3 µM
  viability, T/C: 8.51%
Second compound 0.316 µM, first compound 0.949 µM
  viability, T/C: 6.34%
Second compound 0.316 µM, first compound 3 µM
  viability, T/C: 5.65%
Second compound 1 µM, first compound 0.00949 µM
  viability, T/C: 33.1%
Second compound 1 µM, first compound 0.03 µM
  viability, T/C: 38.5%
Second compound 1 µM, first compound 0.0949 µM
  viability, T/C: 31.7%
Second compound 1 µM, first compound 0.3 µM
  viability, T/C: 7.62%
Second compound 1 µM, first compound 0.949 µM
  viability, T/C: 5.87%
Second compound 1 µM, first compound 3 µM
  viability, T/C: 5.13%
Second compound 3.16 µM, first compound 0.00949 µM
  viability, T/C: 23.1%
Second compound 3.16 µM, first compound 0.03 µM
  viability, T/C: 25.1%
Second compound 3.16 µM, first compound 0.0949 µM
  viability, T/C: 24%
Second compound 3.16 µM, first compound 0.3 µM
  viability, T/C: 8.35%
Second compound 3.16 µM, first compound 0.949 µM
  viability, T/C: 5.85%
Second compound 3.16 µM, first compound 3 µM
  viability, T/C: 5.4%
Second compound 10 µM, first compound 0.00949 µM
  viability, T/C: 18.1%
Second compound 10 µM, first compound 0.03 µM
  viability, T/C: 21.6%
Second compound 10 µM, first compound 0.0949 µM
  viability, T/C: 15.7%
Second compound 10 µM, first compound 0.3 µM
  viability, T/C: 6.3%
Second compound 10 µM, first compound 0.949 µM
  viability, T/C: 5.1%
Second compound 10 µM, first compound 3 µM
  viability, T/C: 4.5%

## CC(C)n1nc(-c2ccc3oc(N)nc3c2)c2c(N)ncnc21 + CC(C)NCC(C(=O)N1CCN(c2ncnc3c2C(C)CC3O)CC1)c1ccc(Cl)cc1
[1]
  IC50: 0.905 nM
[2]
  IC50: < 0.316 nM
[3]
  IC50: < 0.316 nM
[4]
  IC50: < 0.316 nM
[5]
  IC50: < 0.316 nM
[6]
  viability, T/C: 64.2%
[7]
  viability, T/C: 48.1%
[8]
  viability, T/C: 32.4%
[9]
  viability, T/C: 18.1%
[10]
  viability, T/C: 12.2%
[11]
  viability, T/C: 9.34%
[12]
  viability, T/C: 49.2%
[13]
  viability, T/C: 32.3%
[14]
  viability, T/C: 22.9%
[15]
  viability, T/C: 13.5%
[16]
  viability, T/C: 9.74%
[17]
  viability, T/C: 7.89%
[18]
  viability, T/C: 29%
[19]
  viability, T/C: 23.1%
[20]
  viability, T/C: 14%
[21]
  viability, T/C: 8.57%
[22]
  viability, T/C: 7.4%
[23]
  viability, T/C: 6.44%
Second compound 3.16 µM, first compound 0.000316 µM
  viability, T/C: 18.6%
Second compound 3.16 µM, first compound 0.001 µM
  viability, T/C: 14.2%
Second compound 3.16 µM, first compound 0.00316 µM
  viability, T/C: 9.92%
Second compound 3.16 µM, first compound 0.01 µM
  viability, T/C: 6.7%
Second compound 3.16 µM, first compound 0.0316 µM
  viability, T/C: 6.17%
Second compound 3.16 µM, first compound 0.1 µM
  viability, T/C: 5.92%
Second compound 10 µM, first compound 0.000316 µM
  viability, T/C: 14.1%
Second compound 10 µM, first compound 0.001 µM
  viability, T/C: 14.2%
Second compound 10 µM, first compound 0.00316 µM
  viability, T/C: 7.9%
Second compound 10 µM, first compound 0.01 µM
  viability, T/C: 6.04%
Second compound 10 µM, first compound 0.0316 µM
  viability, T/C: 5.82%
Second compound 10 µM, first compound 0.1 µM
  viability, T/C: 5.09%

## Cn1ncnc1[C@H]1c2n[nH]c(=O)c3cc(F)cc(c23)N[C@@H]1c1ccc(F)cc1 + CCN1CCN(Cc2ccc(Nc3ncc(F)c(-c4cc(F)c5nc(C)n(C(C)C)c5c4)n3)nc2)CC1
Curve of first compound, second compound 0.01 µM
  IC50: > 100 nM
Curve of first compound, second compound 0.0316 µM
  IC50: > 100 nM
[1]
  IC50: > 100 nM
[2]
  IC50: > 100 nM
[3]
  IC50: > 100 nM
Second compound 0.01 µM, first compound 0.000316 µM
  viability, T/C: 99.7%
Second compound 0.01 µM, first compound 0.001 µM
  viability, T/C: 102%
Second compound 0.01 µM, first compound 0.00316 µM
  viability, T/C: 96.8%
Second compound 0.01 µM, first compound 0.01 µM
  viability, T/C: 89%
Second compound 0.01 µM, first compound 0.0316 µM
  viability, T/C: 88.5%
Second compound 0.01 µM, first compound 0.1 µM
  viability, T/C: 81.6%
Second compound 0.0316 µM, first compound 0.000316 µM
  viability, T/C: 94.2%
Second compound 0.0316 µM, first compound 0.001 µM
  viability, T/C: 95.7%
Second compound 0.0316 µM, first compound 0.00316 µM
  viability, T/C: 84.5%
Second compound 0.0316 µM, first compound 0.01 µM
  viability, T/C: 79.1%
Second compound 0.0316 µM, first compound 0.0316 µM
  viability, T/C: 84.1%
Second compound 0.0316 µM, first compound 0.1 µM
  viability, T/C: 77.4%
[6]
  viability, T/C: 90%
[7]
  viability, T/C: 84.4%
[8]
  viability, T/C: 78.3%
[9]
  viability, T/C: 73.4%
[10]
  viability, T/C: 82.1%
[11]
  viability, T/C: 76%
[12]
  viability, T/C: 81.9%
[13]
  viability, T/C: 78%
[14]
  viability, T/C: 75.3%
[15]
  viability, T/C: 73.3%
[16]
  viability, T/C: 66.7%
[17]
  viability, T/C: 64.7%
[18]
  viability, T/C: 67.9%
[19]
  viability, T/C: 75.3%
[20]
  viability, T/C: 63.3%
[21]
  viability, T/C: 65.8%
[22]
  viability, T/C: 63.7%
[23]
  viability, T/C: 61.2%
